Experiment: solvent given as SMILES

## CCCCCCCCCCCCSc1cc2c3c(ccc4c5c(SCCCCCCCCCCCC)cc6c7c(ccc(c1c34)c75)C(=O)N(C1CCCCC1)C6=O)C(=O)N(C1CCCCC1)C2=O
In ClC(Cl)Cl
  fluorescence lifetime: 8.5 ns

## CC(C)(C)c1ccc2c(c1)c1cc(C(C)(C)C)ccc1n2-c1ccc(C#Cc2cccc(C#Cc3ccc(-n4c5ccc(C(C)(C)C)cc5c5cc(C(C)(C)C)ccc54)cc3)c2)cc1
In CC#N
  fluorescence lifetime: 5.51 ns
In CCCCC
  fluorescence lifetime: 1.38 ns
In CO
  fluorescence lifetime: 4.88 ns
In Cc1ccccc1
  fluorescence lifetime: 1.65 ns
In ClC(Cl)Cl
  fluorescence lifetime: 2.51 ns
In ClCCl
  fluorescence lifetime: 3.62 ns

## CC[n+]1c(C=C2C(=O)C(C=C3Sc4cc(Cl)ccc4N3C)=C2[O-])[se]c2ccccc21
In CO
  fluorescence lifetime: 0.83 ns
In ClC(Cl)Cl
  fluorescence lifetime: 4.41 ns

## O=C1O[B-]2(OC1=O)OC(c1ccc3ccccc3c1)=CC(c1ccc3ccccc3c1)=[O+]2
In CC#N
  fluorescence lifetime: 4.6 ns
In ClC(Cl)(Cl)Cl
  fluorescence lifetime: 1.8 ns

## CC1=CC(/C=C/c2ccc([N+](C)(C)C)cc2)=[N+]2C1=C(c1ccc(I)cc1)c1c(C)cc(/C=C/c3ccc([N+](C)(C)C)cc3)n1[B-]2(F)F
In CC#N
  fluorescence lifetime: 5.1 ns

## C(#Cc1cc2ccc3cccc4ccc(c1)c2c34)c1ccccc1
In Cc1ccccc1
  fluorescence lifetime: 71 ns

## Clc1ccc(/C=C/c2nc3ccccc3o2)cc1
In C1CCCCC1
  fluorescence lifetime: 0.2 ns
In CO
  fluorescence lifetime: 0.16 ns

## Nc1cccc2c1ccc1[n+]2[B-](F)(F)n2c-1cc1c3ccccc3c3ccccc3c12
In ClCCl
  fluorescence lifetime: 2.19 ns

## COC(=O)C12N=N[C@](C(=O)OC)(C3C4C=CC(C4)C31)[C@@H]1C[C@H]12 (some centres not stated)
In CC#N
  fluorescence lifetime: 131 ns

## CC(C)(C)c1ccc2c(c1)c1cc(C(C)(C)C)ccc1n2-c1cccc2c1Oc1c(-c3nc(-c4ccccc4)nc(-c4ccccc4)n3)cccc1C2(C)C
In Cc1ccccc1
  fluorescence lifetime: 4 ns

## CC(C)(C)c1ccc(-c2nnc(-c3c(-n4c5ccccc5c5ccccc54)c(-n4c5ccccc5c5ccccc54)c(-n4c5ccccc5c5ccccc54)c(-n4c5ccccc5c5ccccc54)c3-n3c4ccccc4c4ccccc43)o2)cc1
In Cc1ccccc1
  fluorescence lifetime: 2.9 ns

## COc1cc(OC)cc(-c2ccc(-c3ccc(C#N)s3)s2)c1
In C1CCCCC1
  fluorescence lifetime: 0.22 ns
In C1COCCO1
  fluorescence lifetime: 0.23 ns
In CC#N
  fluorescence lifetime: 0.24 ns
In CC(C)O
  fluorescence lifetime: 0.23 ns
In CCCCO
  fluorescence lifetime: 0.24 ns
In CCO
  fluorescence lifetime: 0.24 ns
In CCOC(C)=O
  fluorescence lifetime: 0.22 ns
In CN(C)C=O
  fluorescence lifetime: 0.28 ns
In CO
  fluorescence lifetime: 0.25 ns
In CS(C)=O
  fluorescence lifetime: 0.35 ns
In Cc1ccccc1
  fluorescence lifetime: 0.22 ns
In ClC(Cl)Cl
  fluorescence lifetime: 0.22 ns
In ClCCl
  fluorescence lifetime: 0.23 ns
In O
  fluorescence lifetime: 1.02 ns

## COc1ccc2nc3c(nc2c1)c(-c1ccccc1)nn3C
In C1CCCCC1
  fluorescence lifetime: 5.37 ns
In C1CCOC1
  fluorescence lifetime: 12.4 ns
In CC#N
  fluorescence lifetime: 16.7 ns

## CCCCCCN(CCCCCC)c1ccc(C#Cc2ccc(C#Cc3ccc(-c4ccc(C#Cc5ccc(C#Cc6ccc(N(CCCCCC)CCCCCC)cc6)cc5)cc4)cc3)cc2)cc1
In Cc1ccccc1
  fluorescence lifetime: 0.8 ns

## Cc1cc(C)c(B(c2ccc(-n3c4ccccc4c4ccccc43)cc2)c2c(C)cc(C)cc2C)c(C)c1
In Cc1ccccc1
  fluorescence lifetime: 3.7 ns

## COCCOCCOCCOCC(COCCOCCOCCOC)Oc1cc(/C=C/c2ccc(/C=C(\C#N)c3ccccc3)cc2)c(OC(COCCOCCOCCOC)COCCOCCOCCOC)cc1/C=C/c1ccc(/C=C(\C#N)c2ccccc2)cc1
In ClCCl
  fluorescence lifetime: 1.6 ns

## Fc1ccc(N(c2ccc(F)cc2)c2ccc3c4cccc5c(N(c6ccc(F)cc6)c6ccc(F)cc6)ccc(c6cccc2c63)c54)cc1
In ClCCl
  fluorescence lifetime: 4.26 ns

## N#Cc1c(-n2c3ccccc3c3cc(I)ccc32)c(-n2c3ccccc3c3cc(I)ccc32)c(C#N)c(-n2c3ccccc3c3cc(I)ccc32)c1-n1c2ccccc2c2cc(I)ccc21
In Cc1ccccc1
  fluorescence lifetime: 0.3 ns

## c1ccc(-c2nnc(-c3ccc(-n4c5ccccc5c5ccccc54)cc3)o2)cc1
In CCO
  fluorescence lifetime: 2.01 ns

## O=C1NC(=O)c2ccc3c4ccc5c6c(ccc(c7ccc1c2c73)c64)C(=O)N(c1ccc(O)cc1)C5=O
In CN(C)C=O
  fluorescence lifetime: 2.8 ns

## C(/C=C/c1ccc(-n2c3ccccc3c3ccccc32)cc1)=C\c1ccncc1
In C1COCCO1
  fluorescence lifetime: 1.32 ns
In CC#N
  fluorescence lifetime: 2.52 ns

## Cn1c2ccccc2c2c1c1ccccc1n2C
In CCCO
  fluorescence lifetime: 9 ns

## CC1=C(Br)C(C)=[N+]2C1=C(c1c(-c3ccccn3)nc3ccccn13)c1c(C)c(Br)c(C)n1[B-]2(F)F
In ClCCl
  fluorescence lifetime: 0.9 ns

## CC(O)CC1=N/C(=C\c2cccc(N(C)C)c2)C(=O)N1C (configuration not stated)
In C1CCOC1
  fluorescence lifetime: 13.2 ns
In CC#N
  fluorescence lifetime: 5.2 ns
In CCCCCC
  fluorescence lifetime: 18.9 ns

## COc1ccc(C2=c3sc(-c4ccc(OC)cc4)c(-c4ccc(OC)cc4)c3=[N+]3C2=Nc2c(-c4ccc(OC)cc4)c4sc(-c5ccc(OC)cc5)c(-c5ccc(OC)cc5)c4n2[B-]3(F)F)cc1
In ClC(Cl)Cl
  fluorescence lifetime: 1.53 ns

## COc1ccc(-c2c3ccccc3c(C#Cc3ccccc3)c3cc4cc(C)sc4cc23)cc1
In ClCCl
  fluorescence lifetime: 7.1 ns

## c1ccc(N(c2ccccc2)c2c3ccccc3c(N(c3ccccc3)c3ccccc3)c3ccccc23)cc1
In Cc1ccccc1
  fluorescence lifetime: 13 ns

## N#Cc1cccc2ccccc12
In C1CCCCC1
  fluorescence lifetime: 15.9 ns
In C1CCOC1
  fluorescence lifetime: 11 ns
In CCCCCCC
  fluorescence lifetime: 17.7 ns
In CCCCOC(C)=O
  fluorescence lifetime: 12.9 ns
In CCCOC(C)=O
  fluorescence lifetime: 12.8 ns
In CCOC(C)=O
  fluorescence lifetime: 11.9 ns
In CCOCC
  fluorescence lifetime: 13.7 ns
In Cc1ccccc1
  fluorescence lifetime: 12.8 ns

## COc1ccc(C#Cc2ccc(-c3nn[nH]n3)cc2)cc1OC
In C1CCOC1
  fluorescence lifetime: 0.94 ns
In C1COCCO1
  fluorescence lifetime: 0.81 ns
In CC#N
  fluorescence lifetime: 0.46 ns
In CCOC(C)=O
  fluorescence lifetime: 0.86 ns
In CS(C)=O
  fluorescence lifetime: 0.66 ns
In Cc1ccccc1
  fluorescence lifetime: 0.73 ns
